Data taken from patent publication US8466088B2, “Herbicidal compositions containing benzoylpyrazole compounds” (Ishihara Sangyo Kaisha, Ltd., priority 2007, dated 2013).
Like-named read-outs stand apart in the source and are kept apart here.

Assays:
crabgrass = test: Example 1: pot test, foliar treatment, visually observed growth inhibition of crabgrass; format: in vivo
Excerpt: (§1) When the herbicidal activity in a case where two active ingredients are combined, is larger than the simple sum of the respective herbicidal activities of the two active ingredients (the expected activity), it is called a synergistic effect. The activity expected by the combination of two active ingredients can be calculated as follows (Colby S. R., “Weed”, vol. 15, p. 20-22, 1967). E=α+β−(α×β+100) where
(§2) α: growth inhibition rate when treated with x (g/ha) of herbicide X,
(§3) β: growth inhibition rate when treated with y (g/ha) of herbicide Y,
(§4) E: growth inhibition rate expected when treated with x (g/ha) of herbicide X and y (g/ha) of herbicide Y.
(§5) That is, when the actual growth inhibition rate (measured value) is larger than the growth inhibition rate by the above calculation (calculated value), the activity by the combination can be regarded as showing a synergistic effect.
(§6) Upland field soil was put into a 1/1,000,000 hectare pot, and seeds of various plants were sown. When the respective plants reached predetermined leaf stage, herbicidal compositions in predetermined amounts were diluted with water in an amount corresponding to 300 L/ha and applied for foliar treatment by a small sprayer.
(§7) Further, in accordance with the above Colby's formula, the growth inhibition rate (calculated value) was calculated. In Tables, with respect to the compound A, Compound Nos. in Table 1 or 3 are described, and with respect to other herbicidal compounds, common names are described.

velvetleaf = test: Example 1: pot test, foliar treatment, visually observed growth inhibition of velvetleaf; format: in vivo, Abutilon theophrasti MEDIC.
Excerpt: as §1, §2, §3, §4, §5, §6, §7

[1] = Digitaria sanguinalis, foliar, read-out: Growth inhibition rate (%) of crabgrass, Measured value
[2] = Abutilon theophrasti, foliar, 2.5 to 3.3 leaf stage, 21st day after application, read-out: Growth inhibition rate (%) of velvetleaf, Measured value
[3] = Abutilon theophrasti, foliar, 3.2 to 4.1 leaf stage, 21st day after application, read-out: Growth inhibition rate (%) of velvetleaf, Measured value
[4] = 3.2 to 4.3 leaf stage, 21st day after application, 125 g/ha

Compound: COCCOc1c(S(C)(=O)=O)ccc(C(=O)c2cnn(C)c2O)c1C [No. 2-28]
- Growth inhibition rate (%) of crabgrass, Measured value (crabgrass; 3.5 to 5.0 leaf stage, 22nd day after application, 7 g/ha): 88%
- Growth inhibition rate (%) of crabgrass, Measured value (crabgrass; 3.5 to 5.0 leaf stage, 22nd day after application, 15 g/ha): 93%
- Growth inhibition rate (%) of crabgrass, Measured value (crabgrass; 3.6 to 4.5 leaf stage, 14th day after application, 7 g/ha): 90%
- Growth inhibition rate (%) of crabgrass, Measured value (crabgrass; 3.6 to 4.5 leaf stage, 14th day after application, 15 g/ha): 97%
- Growth inhibition rate (%) of crabgrass, Measured value (crabgrass; 3.6 to 4.5 leaf stage, 22nd day after application, 7 g/ha): 93%
- Growth inhibition rate (%) of crabgrass, Measured value (crabgrass; 4.1 to 5.3 leaf stage, 14th day after application, 15 g/ha): 85%
- Growth inhibition rate (%) of crabgrass, Measured value (crabgrass; 4.1 to 5.3 leaf stage, 20th day after application, 7 g/ha): 85%
- Growth inhibition rate (%) of crabgrass, Measured value (crabgrass; 4.1 to 5.3 leaf stage, 20th day after application, 15 g/ha): 97%
- Growth inhibition rate (%) of crabgrass, Measured value (crabgrass; 4.3 to 4.5 leaf stage, 20th day after application, 15 g/ha): 80%
- Growth inhibition rate (%) of velvetleaf, Measured value (velvetleaf; 3.3 to 4.2 leaf stage, 14th day after application, 7 g/ha): 93%
- Growth inhibition rate (%) of velvetleaf, Measured value (velvetleaf; 3.3 to 4.2 leaf stage, 14th day after application, 15 g/ha): 97%
- Growth inhibition rate (%) of velvetleaf, Measured value (velvetleaf; 3.3 to 4.2 leaf stage, 22nd day after application, 7 g/ha): 93%
- Growth inhibition rate (%) of velvetleaf, Measured value (velvetleaf; 3.3 to 4.2 leaf stage, 22nd day after application, 15 g/ha): 97%
- Growth inhibition rate (%) of velvetleaf, Measured value (velvetleaf; 3.5 to 4.0 leaf stage, 14th day after application, 7 g/ha): 83%
- Growth inhibition rate (%) of velvetleaf, Measured value (velvetleaf; 3.5 to 4.0 leaf stage, 14th day after application, 15 g/ha): 95%
- Growth inhibition rate (%) of velvetleaf, Measured value (velvetleaf; 3.5 to 4.0 leaf stage, 22nd day after application, 7 g/ha): 90%
- Growth inhibition rate (%) of velvetleaf, Measured value (velvetleaf; 3.5 to 4.1 leaf stage, 14th day after application, 7 g/ha): 75%
- Growth inhibition rate (%) of velvetleaf, Measured value (velvetleaf; 3.5 to 4.1 leaf stage, 14th day after application, 15 g/ha): 85%
- Growth inhibition rate (%) of velvetleaf, Measured value (velvetleaf; 3.5 to 4.1 leaf stage, 20th day after application, 7 g/ha): 75%
- Growth inhibition rate (%) of velvetleaf, Measured value (velvetleaf; 3.5 to 4.1 leaf stage, 20th day after application, 15 g/ha): 88%

Compound: CC(C)N(C(=O)COc1nnc(C(F)(F)F)s1)c1ccc(F)cc1 [Flufenacet]
- inhibition at 150 g/ha (crabgrass; Digitaria sanguinalis, foliar, 3.0 to 4.3 leaf stage, 21st day after application, 150 g/ha, read-out: Growth inhibition rate (%) of crabgrass, Measured value): 0%
- inhibition at 300 g/ha (crabgrass; Digitaria sanguinalis, foliar, 3.0 to 4.3 leaf stage, 21st day after application, read-out: Growth inhibition rate (%) of crabgrass, Measured value): 5%
- inhibition at 300 g/ha (crabgrass; Digitaria sanguinalis, foliar, 3.2 to 4.3 leaf stage, 21st day after application, read-out: Growth inhibition rate (%) of crabgrass, Measured value): 10%
- inhibition at 300 g/ha (velvetleaf; Abutilon theophrasti, foliar, 3.2 to 4.3 leaf stage, 21st day after application, 300 g/ha, read-out: Growth inhibition rate (%) of velvetleaf, Measured value): 0%

Compound: CCCCCCCC(=O)Oc1c(Br)cc(C#N)cc1Br [Bromoxynil-octanoate]
- inhibition at 63 g/ha (crabgrass; Digitaria sanguinalis, foliar, 3.5 to 4.0 leaf stage, 21st day after application, 63 g/ha, read-out: Growth inhibition rate (%) of crabgrass, Measured value): 0%
- inhibition at 63 g/ha (velvetleaf; Abutilon theophrasti, foliar, 2.0 to 2.5 leaf stage, 21st day after application, 63 g/ha, read-out: Growth inhibition rate (%) of velvetleaf, Measured value): 25%
- inhibition at 50 g/ha (velvetleaf; Abutilon theophrasti, foliar, 3.0 to 3.8 leaf stage, 15th day after application, read-out: Growth inhibition rate (%) of velvetleaf, Measured value): 0%
- inhibition at 50 g/ha (velvetleaf; Abutilon theophrasti, foliar, 3.2 to 5.0 leaf stage, 14th day after application, read-out: Growth inhibition rate (%) of velvetleaf, Measured value): 20%
- inhibition at 50 g/ha (velvetleaf; Abutilon theophrasti, foliar, 3.2 to 5.0 leaf stage, 21st day after application, read-out: Growth inhibition rate (%) of velvetleaf, Measured value): 10%
- inhibition at 63 g/ha (velvetleaf; Abutilon theophrasti, foliar, 3.3 to 4.2 leaf stage, 22nd day after application, 63 g/ha, read-out: Growth inhibition rate (%) of velvetleaf, Measured value): 45%
- inhibition at 125 g/ha (velvetleaf; Abutilon theophrasti, foliar, 3.3 to 4.2 leaf stage, 22nd day after application, 125 g/ha, read-out: Growth inhibition rate (%) of velvetleaf, Measured value): 50%
- inhibition at 50 g/ha (velvetleaf; Abutilon theophrasti, foliar, 3.5 to 4.3 leaf stage, 21st day after application, read-out: Growth inhibition rate (%) of velvetleaf, Measured value): 0%

Compound: CCn1ncc(C(=O)c2ccc(S(C)(=O)=O)c(OCCOC)c2C)c1OC(=O)SC(C)C [No. 208]
- Growth inhibition rate (%) of crabgrass, Measured value (crabgrass; 2.7 to 3.6 leaf stage, 21st day after application, 7.75 g/ha): 83%
- Growth inhibition rate (%) of crabgrass, Measured value (crabgrass; 2.7 to 3.6 leaf stage, 21st day after application, 15.5 g/ha): 83%
- Growth inhibition rate (%) of velvetleaf, Measured value (velvetleaf; 3.2 to 4.1 leaf stage, 21st day after application, 7.75 g/ha): 73%
- Growth inhibition rate (%) of velvetleaf, Measured value (velvetleaf; 3.2 to 4.1 leaf stage, 21st day after application, 15.5 g/ha): 73%

Compound: CCOC(=O)C(Cl)Cc1cc(-n2nc(C)n(C(F)F)c2=O)c(F)cc1Cl (centres unmarked) [Carfentrazone-ethyl]
- inhibition at 2.5 g/ha (crabgrass; [1]): 0%
- inhibition at 5 g/ha (crabgrass; [1]): 0%
- inhibition at 5 g/ha (velvetleaf; Abutilon theophrasti, foliar, read-out: Growth inhibition rate (%) of velvetleaf, Measured value, 2.0 to 2.5 leaf stage, 21st day after application): 98%
- inhibition at 2.5 g/ha (velvetleaf; Abutilon theophrasti, foliar, read-out: Growth inhibition rate (%) of velvetleaf, Measured value, 3.2 to 4.3 leaf stage, 21st day after application, 2.5 g/ha): 65%
- inhibition at 5 g/ha (velvetleaf; Abutilon theophrasti, foliar, read-out: Growth inhibition rate (%) of velvetleaf, Measured value, 3.3 to 4.3 leaf stage, 20th day after application): 80%

Compound: N#Cc1cc(Br)c(O)c(Br)c1 [Bromoxynil, bromoxynil, reference compound]
- inhibition at 165 g/ha (crabgrass; Digitaria sanguinalis, foliar, 2.7 to 3.6 leaf stage, 21st day after application, read-out: Growth inhibition rate (%) of crabgrass, Measured value): 0%
- inhibition at 77 g/ha (crabgrass; Digitaria sanguinalis, foliar, 4.0 to 5.0 leaf stage, 21st day after application, 77 g/ha, read-out: Growth inhibition rate (%) of crabgrass, Measured value): 0%
- inhibition at 165 g/ha (crabgrass; Digitaria sanguinalis, foliar, 4.0 to 5.0 leaf stage, 21st day after application, read-out: Growth inhibition rate (%) of crabgrass, Measured value): 0%
- inhibition at 62.5 g/ha (velvetleaf; Abutilon theophrasti, foliar, 2.4 to 3.2 leaf stage, on the 22nd day after application, foliar, active ingredient amount 62.5 g/ha, read-out: Growth inhibition rate (%) of velvetleaf, Measured value): 35%
- inhibition at 77 g/ha (velvetleaf; [2]): 30%
- inhibition at 165 g/ha (velvetleaf; [2]): 40%
- inhibition at 77 g/ha (velvetleaf; [3]): 0%
- inhibition at 165 g/ha (velvetleaf; [3]): 30%
- inhibition at 165 g/ha (velvetleaf; Abutilon theophrasti, foliar, 4.0 to 4.4 leaf stage, 22nd day after application, read-out: Growth inhibition rate (%) of velvetleaf, Measured value): 50%

Compound: CCn1ncc(C(=O)c2ccc(S(C)(=O)=O)c(OCCOC)c2C)c1O [No. 2-161]
- Growth inhibition rate (%) of crabgrass, Measured value (crabgrass; 3.3 to 4.2 leaf stage, 28th day after application, 3.5 g/ha): 70%
- Growth inhibition rate (%) of crabgrass, Measured value (crabgrass; 3.3 to 4.2 leaf stage, 28th day after application, 7 g/ha): 83%
- Growth inhibition rate (%) of velvetleaf, Measured value (velvetleaf; 3.0 to 3.8 leaf stage, 15th day after application, 3.5 g/ha): 60%
- Growth inhibition rate (%) of velvetleaf, Measured value (velvetleaf; 3.0 to 3.8 leaf stage, 15th day after application, 7 g/ha): 60%
- Growth inhibition rate (%) of velvetleaf, Measured value (velvetleaf; 3.0 to 3.8 leaf stage, 28th day after application, 3.5 g/ha): 45%
- Growth inhibition rate (%) of velvetleaf, Measured value (velvetleaf; 3.0 to 3.8 leaf stage, 28th day after application, 7 g/ha): 65%

Compound: NCCO.O=C(O)c1nc(Cl)ccc1Cl [Clopyralid-olamine]
- Growth inhibition rate (%) of crabgrass, Measured value (crabgrass; 3.0 to 4.3 leaf stage, 21st day after application, 100 g/ha): 0%
- Growth inhibition rate (%) of velvetleaf, Measured value (velvetleaf; 3.3 to 4.3 leaf stage, 20th day after application, 150 g/ha): 5%
- Growth inhibition rate (%) of velvetleaf, Measured value (velvetleaf; 3.3 to 4.3 leaf stage, 20th day after application, 300 g/ha): 10%
- Growth inhibition rate (%) of velvetleaf, Measured value (velvetleaf; 3.5 to 4.1 leaf stage, 14th day after application, 150 g/ha): 20%
- Growth inhibition rate (%) of velvetleaf, Measured value (velvetleaf; 3.5 to 4.1 leaf stage, 14th day after application, 300 g/ha): 20%

Compound: COC(=O)c1c(S(C)(=O)=O)ccc(C(=O)c2cnn(C)c2O)c1C [No. 2-1]
- Growth inhibition rate (%) of crabgrass, Measured value (crabgrass; 3.8 to 4.4 leaf stage, 21st day after application, 3.5 g/ha): 45%
- Growth inhibition rate (%) of velvetleaf, Measured value (velvetleaf; 3.5 to 4.3 leaf stage, 21st day after application, 3.5 g/ha): 30%

Compound: CCOC(=O)COc1ccc(Cl)cc1Cl [2,4-D-ethyl]
- Growth inhibition rate (%) of crabgrass, Measured value (crabgrass; [4]): 0%
- Growth inhibition rate (%) of crabgrass, Measured value (crabgrass; 3.6 to 4.5 leaf stage, 14th day after application, 100 g/ha): 0%
- Growth inhibition rate (%) of crabgrass, Measured value (crabgrass; 3.6 to 4.5 leaf stage, 22nd day after application, 200 g/ha): 25%
- Growth inhibition rate (%) of velvetleaf, Measured value (velvetleaf; 2.4 to 3.2 leaf stage, 22nd day after application, 63 g/ha): 30%
- Growth inhibition rate (%) of velvetleaf, Measured value (velvetleaf; [4]): 50%

Compound: CCOc1c(S(C)(=O)=O)ccc(C(=O)c2cnn(C)c2O)c1C [No. 2-19]
- Growth inhibition rate (%) of crabgrass, Measured value (crabgrass; 3.8 to 5.2 leaf stage, 21st day after application, 7 g/ha): 30%
- Growth inhibition rate (%) of velvetleaf, Measured value (velvetleaf; 3.2 to 5.0 leaf stage, 14th day after application, 7 g/ha): 60%
- Growth inhibition rate (%) of velvetleaf, Measured value (velvetleaf; 3.2 to 5.0 leaf stage, 21st day after application, 7 g/ha): 50%
